In PMC12169614, “Exploring Long Arm Amide-Linked Side Chains in the Design of Antifungal Azole Inhibitors of Sterol 14α-Demethylase (CYP51)” (Journal of Medicinal Chemistry, 2025):

Tests used:
[1] = tested on: Y2301 ScCYP51 Y140F mutant; assay: Agarose (disk) diffusion assay, strain Y2301; format: cell-based, S. cerevisiae; settings: 10 nmol/disk, 30 °C, 48 h
Source text: (§1) Final compounds were screened as racemic mixtures using agarose diffusion assays to visualize their inhibitory activity against a panel of recombinant S. cerevisiae strains i.e., S. cerevisiae strains expressing control levels of wild-type CYP51 (ScCYP51), overexpressed wild-type ScCYP51, overexpressed azole-resistant ScCYP51 Y140F/H mutations and overexpressed C. albicans efflux pumps MDR1a or CDR1B (Figure and Table S1).
(§2) The susceptibilities of S. cerevisiae and Candida species strains to azole compounds were observed as zones of growth inhibition in agarose diffusion assays. The disk diffusion assays were carried out as described by Keniya et al. Complete supplement mixture (CSM) agarose (0.6% agarose [wt/vol]; 20 mL of synthetic defined medium (SD); pH 6.8–7) was solidified in a rectangular Petri dish which was overlaid with CSM agarose (0.6% [wt/vol]; 5 mL; pH 6.8–7) seeded with yeast cells at an optical density (OD600) of 0.008 (118,000 cells per 1 mL of overlay). Azole compounds (10 nmol/disk) were applied to sterile BBL paper disks (Becton Dickinson Co., Sparks, MD) and placed on solidified overlays. Cell growth was assessed after incubation at 30 °C for 48 h.

[2] = tested on: Y525 MFS efflux pump CaMDR1a overexpressed; assay: Agarose (disk) diffusion assay, strain Y525; format: cell-based, S. cerevisiae; settings: 10 nmol/disk, 30 °C, 48 h
Source text: as §1, §2

[3] = tested on: Y2513 ScCYP51 Y140H mutant; assay: Agarose (disk) diffusion assay, strain Y2513; format: cell-based, S. cerevisiae; settings: 10 nmol/disk, 30 °C, 48 h
Source text: as §1, §2

Y71 SC5314 = assay: MIC80 determination, C. albicans clinical isolate Y71 SC5314; format: cell-based; settings: Candida albicans; for MIC: SC5314, supplement csv; for MIC80: C. albicans clinical isolate Y71 SC5314, pH 7, 24 h
Protocol: (§3) Cells were seeded at an OD600 nm of 0.005 (1.5 × 10^4 CFU), and the plates were incubated at 30 °C with shaking at 200 rpm for 48 h for S. cerevisiae strains and 24 h for C. albicans . Cell growth was assessed by measuring the OD600 nm using a Synergy 2 multimode plate reader (BioTek Instruments, VT, USA). Each MIC80 was determined using triplicate measurements for pools of 4 clones of each strain in three separate experiments.

Y2459 OE CaCYP51 CaCpr = assay: MIC80 determination, strain Y2459; format: cell-based, S. cerevisiae; settings: for MIC80: Saccharomyces cerevisiae, 48 h, pH 6.8; for MIC: read-out: MIC (nM) C. albicans model Y2459
Protocol: as §3

Y433 OE CgCDR1 = assay: MIC80 determination, strain Y433; format: cell-based, S. cerevisiae; settings: Saccharomyces cerevisiae
Protocol: as §3

Y2301 OE ScCYP51 Y140F = assay: MIC80 determination, strain Y2301; format: cell-based, S. cerevisiae; settings: Saccharomyces cerevisiae; for MIC80: 48 h, pH 6.8; for MIC: read-out: MIC (nM) S. cerevisiae Y2301
Protocol: as §3

Y2513 OE ScCYP51 Y140H = assay: MIC80 determination, strain Y2513; format: cell-based, S. cerevisiae; settings: Saccharomyces cerevisiae; for MIC80: 48 h, pH 6.8; for MIC: read-out: MIC (nM) S. cerevisiae Y2513
Protocol: as §3

Y610 FHB1 = assay: MIC80 determination, C. albicans clinical isolate Y610 FHB1; format: cell-based; settings: Candida albicans; C. albicans clinical isolate Y610 FHB1 (weakly expresses CaCDR1); pH 7, 24 h
Protocol: as §3

Y611 FHB3 = assay: MIC80 determination, C. albicans clinical isolate Y611 FHB3; format: cell-based; settings: Candida albicans, 24 h, pH 7
Protocol: as §3

Y1 = assay: MIC80 determination, C. albicans clinical isolate Y1; format: cell-based; settings: Candida albicans, pH 7, 24 h
Protocol: as §3

Y570 OE CaCDR1B = assay: MIC80 determination, strain Y570; format: cell-based, S. cerevisiae; settings: for MIC: Candida albicans, read-out: MIC (nM) C. albicans model Y570; for MIC80: Saccharomyces cerevisiae, 48 h, pH 6.8
Protocol: as §3

[4] = tested on: Y2747 OE AfCYP51B AfCPR AfERG6; assay: MIC80 determination, strain Y2747; format: cell-based, S. cerevisiae
Protocol: as §3

Y525 OE CaMDR1a = assay: MIC80 determination, strain Y525; format: cell-based, S. cerevisiae; settings: for MIC80: Saccharomyces cerevisiae, 48 h, pH 6.8; for MIC: read-out: MIC (nM) C. albicans model Y525
Protocol: as §3

Y2411 Endog. ScCYP51 = assay: MIC80 determination, strain Y2411; format: cell-based, S. cerevisiae; settings: Saccharomyces cerevisiae; for MIC80: strain Y2411 Endog. ScCYP51, SD pH 6.8, 30 °C, 48 h; for MIC: supplement csv, read-out: MIC (nM) S. cerevisiae Y2411
Protocol: as §3

Y2651 OE CYP51 F5 RaCPR = assay: MIC80 determination, strain Y2651; format: cell-based, S. cerevisiae; settings: Saccharomyces cerevisiae
Protocol: as §3

2711 CnCYP51 OE CnCPR = assay: MIC80 determination, strain 2711; format: cell-based, S. cerevisiae
Protocol: as §3

Y2716 OE CpCYP51 Y132F = assay: MIC80 determination, strain Y2716; format: cell-based, S. cerevisiae
Protocol: as §3

Y2300 OE ScCYP51 = assay: MIC80 determination, strain Y2300; format: cell-based, S. cerevisiae; settings: Saccharomyces cerevisiae; for MIC80: 48 h, pH 6.8; for MIC: read-out: MIC (nM) S. cerevisiae Y2300
Protocol: as §3

Y2649 OE CYP51 F1 RaCPR = assay: MIC80 determination, strain Y2649; format: cell-based, S. cerevisiae
Protocol: as §3

Y2721 OE CpCYP51 = assay: MIC80 determination, strain Y2721; format: cell-based, S. cerevisiae
Protocol: as §3

[5] = tested on: Y2746 OE AfCYP51A AfCPR AfERG6; assay: MIC80 determination, strain Y2746; format: cell-based, S. cerevisiae; settings: Saccharomyces cerevisiae
Protocol: as §3

Y2374 OE CgCYP51 = assay: MIC80 determination, strain Y2374; format: cell-based, S. cerevisiae; settings: Saccharomyces cerevisiae; for MIC: read-out: MIC (nM) C. glabrate model Y2374
Protocol: as §3

O=C(NCc1ccc(-c2ccc(Cl)cc2)cc1)C(Cn1cncn1)c1ccc(F)cc1F (stereo not shown) [Compound 38]
zone of growth inhibition (inhibitory activity in words) [1]: low inhibitory activity | zone of growth inhibition (inhibitory activity in words) [2]: low inhibitory activity | zone of growth inhibition (inhibitory activity in words) [3]: low inhibitory activity

O=C(NCC(O)(Cn1cncn1)c1ccc(F)cc1F)c1cnc2ccccc2c1 (stereo not shown) [Compound 15, N-(2-(2,4-Difluorophenyl)-2-hydroxy-3-(1H-1,2,4-triazol-1-yl)propyl)quinoline-3-carboxamide]
zone of growth inhibition (inhibitory activity in words) [1]: showed activity | zone of growth inhibition (inhibitory activity in words) [3]: showed activity

O=C(NCC(O)(Cn1cncn1)c1ccc(F)cc1F)c1cccc(-c2ccc(C(F)(F)F)cc2)c1 (stereo not shown) [Compound 23, N-(2-(2,4-Difluorophenyl)-2-hydroxy-3-(1H-1,2,4-triazol-1-yl)propyl)-4’-(trifluoromethyl)-[1,1’-biphenyl]-3-carboxamide]
MIC (Y71 SC5314): 100 nM | MIC80 (Y71 SC5314): 0.1 µM | MIC80 (Y2459 OE CaCYP51 CaCpr): 0.06 ± 0.011 µM | MIC (Y2459 OE CaCYP51 CaCpr): 60 ± 11 nM | MIC80 (Y433 OE CgCDR1): 13.1 µM | MIC80 (Y2301 OE ScCYP51 Y140F): 0.411 ± 0.071 µM | MIC (Y2301 OE ScCYP51 Y140F): 411 ± 71 nM | MIC80 (Y2513 OE ScCYP51 Y140H): 0.805 ± 0.121 µM | MIC (Y2513 OE ScCYP51 Y140H): 805 ± 121 nM | MIC80 (Y610 FHB1): 0.4 ± 0.113 µM | zone of growth inhibition (inhibitory activity in words) [1]: significantly greater resistance | MIC80 (Y611 FHB3): 4.25 µM | MIC80 (Y1): 0.12 µM | MIC (Y570 OE CaCDR1B): 8100 nM | MIC80 (Y570 OE CaCDR1B): 8.1 µM | MIC ([4]; Aspergillus fumigatus, read-out: MIC (nM) A. fumigatus model Y2747): 150 ± 26 nM | MIC80 ([4]; Saccharomyces cerevisiae): 0.15 ± 0.026 µM | zone of growth inhibition (inhibitory activity in words) [3]: significantly greater resistance | MIC80 (Y525 OE CaMDR1a): 0.44 µM | MIC (Y525 OE CaMDR1a): 440 nM | MIC80 (Y2411 Endog. ScCYP51): 0.037 ± 0.011 µM | MIC (Y2411 Endog. ScCYP51): 37 ± 11 nM | MIC80 (Y2651 OE CYP51 F5 RaCPR): 2.57 ± 0.938 µM | MIC80 (2711 CnCYP51 OE CnCPR; Saccharomyces cerevisiae): 0.02 µM | MIC (2711 CnCYP51 OE CnCPR; read-out: MIC (nM) C. neoformans model Y2711): 20 nM | increase in resistance owing to the CpCYP51 Y132F mutation (Y2716 OE CpCYP51 Y132F; MIC80 Y2716 versus Y2721): > 19 fold | MIC80 (Y2716 OE CpCYP51 Y132F; Saccharomyces cerevisiae): 1.91 ± 0.02 µM | MIC80 (Y2300 OE ScCYP51): 0.069 ± 0.039 µM | MIC (Y2300 OE ScCYP51): 69 ± 39 nM | MIC (Y2649 OE CYP51 F1 RaCPR; Rhizopus arrhizus, read-out: MIC (nM) R. arrhizus model Y2649): 32 ± 19 nM | MIC80 (Y2649 OE CYP51 F1 RaCPR; Saccharomyces cerevisiae): 0.032 ± 0.019 µM | MIC80 (Y2721 OE CpCYP51; Saccharomyces cerevisiae): 0.055 ± 0.003 µM | MIC (Y2721 OE CpCYP51; read-out: MIC (nM) C. parapsilosis model Y2721): 55 ± 3 nM | MIC80 [5]: 3.52 ± 0.209 µM | MIC80 (Y2374 OE CgCYP51): 0.076 ± 0.012 µM | MIC (Y2374 OE CgCYP51): 76 ± 12 nM

O=C(NCC(O)(Cn1cncn1)c1ccc(F)cc1F)c1ccc(NC(=O)c2ccc(Cl)cc2)cc1 (stereo not shown) [Compound 26, 4-Chloro-N-(4-((2-(2,4-difluorophenyl)-2-hydroxy-3-(1H-1,2,4-triazol-1-yl)propyl)carbamoyl)phenyl)benzamide]
MIC (Y71 SC5314): 208 ± 83 nM | MIC80 (Y71 SC5314): 0.208 ± 0.083 µM | MIC80 (Y2459 OE CaCYP51 CaCpr): 0.118 ± 0.003 µM | MIC (Y2459 OE CaCYP51 CaCpr): 118 ± 3 nM | MIC80 (Y433 OE CgCDR1): > 40 µM | MIC80 (Y2301 OE ScCYP51 Y140F): 0.123 ± 0.038 µM | MIC (Y2301 OE ScCYP51 Y140F): 123 ± 38 nM | MIC80 (Y2513 OE ScCYP51 Y140H): 0.087 ± 0.004 µM | MIC (Y2513 OE ScCYP51 Y140H): 87 ± 4 nM | MIC80 (Y610 FHB1): 0.95 µM | MIC80 (Y611 FHB3): 19.5 µM | zone of growth inhibition (inhibitory activity in words) [2]: less effective | MIC80 (Y1): 0.285 µM | MIC (Y570 OE CaCDR1B): > 40000 nM | MIC80 (Y570 OE CaCDR1B): > 40 µM | MIC80 (Y525 OE CaMDR1a): > 1 µM | MIC (Y525 OE CaMDR1a): > 1000 nM | MIC80 (Y2411 Endog. ScCYP51): 0.039 ± 0.014 µM | MIC (Y2411 Endog. ScCYP51): 39 ± 14 nM | MIC80 (Y2300 OE ScCYP51): 0.182 ± 0.03 µM | MIC (Y2300 OE ScCYP51): 182 ± 30 nM | MIC80 (Y2374 OE CgCYP51): 0.205 µM | MIC (Y2374 OE CgCYP51): 205 nM

O=C(NCc1ccc(-c2ccccc2)cc1)C(Cn1cncn1)c1ccc(F)cc1F (stereo not shown) [Compound 37]
zone of growth inhibition (inhibitory activity in words) [1]: low inhibitory activity | zone of growth inhibition (inhibitory activity in words) [2]: low inhibitory activity | zone of growth inhibition (inhibitory activity in words) [3]: low inhibitory activity

O=C(NCc1ccc(-c2ccc(C(F)(F)F)cc2)cc1)C(Cn1cncn1)c1ccc(F)cc1F (stereo not shown) [Compound 39]
zone of growth inhibition (inhibitory activity in words) [1]: lacked inhibitory activity | zone of growth inhibition (inhibitory activity in words) [2]: lacked inhibitory activity | zone of growth inhibition (inhibitory activity in words) [3]: lacked inhibitory activity

O=C(NCc1ccc(-c2ccc(OC(F)(F)F)cc2)cc1)C(Cn1cncn1)c1ccc(F)cc1F (stereo not shown) [Compound 40]
zone of growth inhibition (inhibitory activity in words) [1]: low inhibitory activity | zone of growth inhibition (inhibitory activity in words) [2]: low inhibitory activity | zone of growth inhibition (inhibitory activity in words) [3]: low inhibitory activity
